Activity calls are given as the source filed them.
What was measured:
[1] = target: T1, Short transient receptor potential channel 4 (Mus musculus, UniProt Q9QUQ5); test: mouse TRPC4 channel inhibitors, dose response, cell-based, HEK293 TRPC4/mu-opioid, Fluo-4 calcium (AID 434942); type: functional;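 note: potency of inhibitors blocking the TRPC4 calcium response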
T1 sequence (Q9QUQ5 whole entry): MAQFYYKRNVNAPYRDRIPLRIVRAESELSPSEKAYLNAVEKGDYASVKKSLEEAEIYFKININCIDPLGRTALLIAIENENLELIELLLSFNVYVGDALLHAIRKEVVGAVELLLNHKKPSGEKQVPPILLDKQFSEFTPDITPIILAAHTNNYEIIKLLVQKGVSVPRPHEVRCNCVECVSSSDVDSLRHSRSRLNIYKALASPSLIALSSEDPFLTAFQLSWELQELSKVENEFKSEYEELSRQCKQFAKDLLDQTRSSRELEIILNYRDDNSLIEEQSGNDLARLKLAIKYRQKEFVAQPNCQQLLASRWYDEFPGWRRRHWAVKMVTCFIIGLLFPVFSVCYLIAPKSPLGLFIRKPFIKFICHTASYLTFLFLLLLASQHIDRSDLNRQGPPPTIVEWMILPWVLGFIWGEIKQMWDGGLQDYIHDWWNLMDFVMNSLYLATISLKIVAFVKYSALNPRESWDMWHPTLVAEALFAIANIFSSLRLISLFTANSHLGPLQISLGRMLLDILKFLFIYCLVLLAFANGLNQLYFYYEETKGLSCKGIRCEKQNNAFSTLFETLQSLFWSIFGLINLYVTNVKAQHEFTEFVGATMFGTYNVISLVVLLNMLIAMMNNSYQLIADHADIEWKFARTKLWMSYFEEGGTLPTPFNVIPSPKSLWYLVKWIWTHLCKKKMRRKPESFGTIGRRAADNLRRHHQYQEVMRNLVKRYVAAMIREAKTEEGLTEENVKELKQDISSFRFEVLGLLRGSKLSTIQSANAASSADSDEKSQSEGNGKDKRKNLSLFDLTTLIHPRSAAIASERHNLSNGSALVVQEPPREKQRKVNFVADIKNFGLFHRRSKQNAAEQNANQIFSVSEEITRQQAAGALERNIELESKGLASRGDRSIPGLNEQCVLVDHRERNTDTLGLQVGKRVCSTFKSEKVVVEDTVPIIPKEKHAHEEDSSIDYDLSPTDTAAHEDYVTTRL

Prothrombin = Prothrombin (Bos taurus, UniProt P00735); test: thrombin inhibition, dose response, biochemical, fluorescence polarization, uHTS hits (AID 602369); type: functional
[2] = target: 72 kDa type IV collagenase (Homo sapiens, UniProt P08253); test: Dose Response validation of uHTS RPN11 inhibitor hits using a MMP-2 Fluorescence assay.; type: functional
Sequence of 72 kDa type IV collagenase (P08253 whole entry): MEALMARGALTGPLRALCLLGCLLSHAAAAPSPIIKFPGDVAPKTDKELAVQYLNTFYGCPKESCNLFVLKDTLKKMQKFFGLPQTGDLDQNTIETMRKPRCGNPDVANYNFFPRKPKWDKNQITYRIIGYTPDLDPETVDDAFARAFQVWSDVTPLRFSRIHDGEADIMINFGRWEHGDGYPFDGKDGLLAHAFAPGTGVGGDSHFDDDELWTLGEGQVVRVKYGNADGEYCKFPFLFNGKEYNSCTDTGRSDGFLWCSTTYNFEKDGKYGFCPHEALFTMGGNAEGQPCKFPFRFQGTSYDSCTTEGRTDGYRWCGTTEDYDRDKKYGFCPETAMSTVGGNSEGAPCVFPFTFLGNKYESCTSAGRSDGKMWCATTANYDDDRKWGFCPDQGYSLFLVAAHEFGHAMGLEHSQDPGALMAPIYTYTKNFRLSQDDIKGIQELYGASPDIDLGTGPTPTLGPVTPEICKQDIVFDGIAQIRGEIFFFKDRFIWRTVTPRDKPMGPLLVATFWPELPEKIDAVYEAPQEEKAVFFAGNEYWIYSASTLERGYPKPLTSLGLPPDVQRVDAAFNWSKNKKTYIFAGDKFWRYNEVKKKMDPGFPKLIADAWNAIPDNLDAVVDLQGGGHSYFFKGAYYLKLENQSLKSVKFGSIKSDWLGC

[3] = target: 26S proteasome non-ATPase regulatory subunit 14 (Homo sapiens, UniProt O00487); test: inhibition of proteasome subunit RPN11 – biochemical, fluorescence polarization, uHTS hits, confirmation (AID 602368); type: functional
Sequence of 26S proteasome non-ATPase regulatory subunit 14 (O00487 whole entry): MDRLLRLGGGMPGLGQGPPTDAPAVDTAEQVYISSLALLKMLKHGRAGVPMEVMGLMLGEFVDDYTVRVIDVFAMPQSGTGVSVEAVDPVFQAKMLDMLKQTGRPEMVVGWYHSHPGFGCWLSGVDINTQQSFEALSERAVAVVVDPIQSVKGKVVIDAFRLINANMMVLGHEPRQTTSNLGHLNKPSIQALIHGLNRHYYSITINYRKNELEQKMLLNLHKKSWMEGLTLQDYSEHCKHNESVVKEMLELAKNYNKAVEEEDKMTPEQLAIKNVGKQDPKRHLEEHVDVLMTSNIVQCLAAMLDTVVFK

[4] = target: T2, High affinity choline transporter 1 (Homo sapiens, UniProt Q9GZV3); test: CHT inhibitors, dose response, cell-based, 5-point CRC, membrane potential dye (AID 504840); type: functional
T2 sequence (Q9GZV3 whole entry): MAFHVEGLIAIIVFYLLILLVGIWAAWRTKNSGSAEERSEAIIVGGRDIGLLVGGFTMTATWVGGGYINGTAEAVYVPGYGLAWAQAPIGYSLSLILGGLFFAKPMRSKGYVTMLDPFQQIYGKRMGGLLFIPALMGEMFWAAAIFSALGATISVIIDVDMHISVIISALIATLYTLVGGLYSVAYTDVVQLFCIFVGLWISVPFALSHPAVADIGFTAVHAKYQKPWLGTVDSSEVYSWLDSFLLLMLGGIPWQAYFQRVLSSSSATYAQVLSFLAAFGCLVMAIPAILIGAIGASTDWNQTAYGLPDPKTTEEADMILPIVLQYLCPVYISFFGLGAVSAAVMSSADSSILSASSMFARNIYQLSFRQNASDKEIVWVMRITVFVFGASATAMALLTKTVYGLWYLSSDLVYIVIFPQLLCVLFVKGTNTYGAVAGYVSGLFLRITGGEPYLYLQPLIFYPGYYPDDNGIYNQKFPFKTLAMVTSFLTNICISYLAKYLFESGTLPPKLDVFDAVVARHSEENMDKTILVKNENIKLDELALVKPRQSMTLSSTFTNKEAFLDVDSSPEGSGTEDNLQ

[5] = target: FAD-linked sulfhydryl oxidase ALR (Homo sapiens, UniProt P55789); test: inhibitors of human ALR sulfhydryl oxidase, dose response, biochemical, H2O2 detection, luminescence, cherry-pick (AID 493248)
Sequence of FAD-linked sulfhydryl oxidase ALR (P55789 whole entry): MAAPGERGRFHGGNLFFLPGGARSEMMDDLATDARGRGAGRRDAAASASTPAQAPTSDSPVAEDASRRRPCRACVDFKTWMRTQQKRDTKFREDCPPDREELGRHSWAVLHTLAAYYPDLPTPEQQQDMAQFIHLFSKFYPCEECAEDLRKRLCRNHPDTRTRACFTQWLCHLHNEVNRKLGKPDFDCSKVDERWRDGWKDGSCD

Large T antigen = Large T antigen (Simian virus 40, UniProt P03070); type: functional, Betapolyomavirus macacae;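 note: Confirmatory-stage PubChem screen for compounds that inhibit SV40 T antigen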
Sequence of Large T antigen (P03070 whole entry): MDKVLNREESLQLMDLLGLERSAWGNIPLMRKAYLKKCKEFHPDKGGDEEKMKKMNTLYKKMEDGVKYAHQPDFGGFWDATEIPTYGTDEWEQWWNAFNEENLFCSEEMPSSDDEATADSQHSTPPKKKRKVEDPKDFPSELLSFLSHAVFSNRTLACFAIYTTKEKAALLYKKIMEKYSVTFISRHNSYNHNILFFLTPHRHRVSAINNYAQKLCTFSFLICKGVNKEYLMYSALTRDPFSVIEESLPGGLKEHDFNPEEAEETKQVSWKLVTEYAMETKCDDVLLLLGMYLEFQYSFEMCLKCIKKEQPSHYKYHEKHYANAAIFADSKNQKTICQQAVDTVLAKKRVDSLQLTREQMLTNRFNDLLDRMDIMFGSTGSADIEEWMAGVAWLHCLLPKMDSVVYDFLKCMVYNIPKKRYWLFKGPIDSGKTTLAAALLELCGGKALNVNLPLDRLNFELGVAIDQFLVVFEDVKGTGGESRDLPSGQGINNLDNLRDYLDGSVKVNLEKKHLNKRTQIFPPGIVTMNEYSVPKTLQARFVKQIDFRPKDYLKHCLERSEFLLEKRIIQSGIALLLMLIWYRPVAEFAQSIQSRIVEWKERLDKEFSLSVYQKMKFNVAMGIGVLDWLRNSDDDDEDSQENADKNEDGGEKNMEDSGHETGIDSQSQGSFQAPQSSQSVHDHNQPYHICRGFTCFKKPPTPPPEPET

[6] = target: T3, Rac GTPase-activating protein 1 (Homo sapiens, UniProt Q9H0H5); test: MgcRacGAP GTPase-activating activity inhibitors, confirmation, biochemical, ADP Hunter fluorescence, primary and confirmatory (AID 624330); type: functional
T3 sequence (Q9H0H5 whole entry): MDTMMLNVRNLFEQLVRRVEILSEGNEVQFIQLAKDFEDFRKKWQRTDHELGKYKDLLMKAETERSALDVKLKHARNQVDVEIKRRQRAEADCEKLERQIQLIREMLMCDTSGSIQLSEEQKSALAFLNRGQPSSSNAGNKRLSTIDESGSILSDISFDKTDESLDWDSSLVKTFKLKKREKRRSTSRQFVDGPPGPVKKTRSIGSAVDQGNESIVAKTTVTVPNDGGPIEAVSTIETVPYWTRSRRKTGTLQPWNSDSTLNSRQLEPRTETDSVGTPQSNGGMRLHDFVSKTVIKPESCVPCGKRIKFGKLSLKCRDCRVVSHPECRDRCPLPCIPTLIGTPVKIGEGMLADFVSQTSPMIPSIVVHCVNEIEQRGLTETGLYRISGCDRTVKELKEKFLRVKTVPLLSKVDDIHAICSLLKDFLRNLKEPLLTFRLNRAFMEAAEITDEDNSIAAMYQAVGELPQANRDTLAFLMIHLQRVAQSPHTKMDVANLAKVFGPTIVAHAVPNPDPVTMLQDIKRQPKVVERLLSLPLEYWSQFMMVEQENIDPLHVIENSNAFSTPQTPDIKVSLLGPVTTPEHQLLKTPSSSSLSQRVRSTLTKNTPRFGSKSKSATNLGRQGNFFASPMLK

[7] = target: Glucose-6-phosphate 1-dehydrogenase (Homo sapiens, UniProt P11413); test: human G6PD enzyme inhibitors, dose response, selectivity assay for P. falciparum G6PD inhibitor project, biochemical, fluorescence (AID 504792); type: functional
Sequence of Glucose-6-phosphate 1-dehydrogenase (P11413 whole entry): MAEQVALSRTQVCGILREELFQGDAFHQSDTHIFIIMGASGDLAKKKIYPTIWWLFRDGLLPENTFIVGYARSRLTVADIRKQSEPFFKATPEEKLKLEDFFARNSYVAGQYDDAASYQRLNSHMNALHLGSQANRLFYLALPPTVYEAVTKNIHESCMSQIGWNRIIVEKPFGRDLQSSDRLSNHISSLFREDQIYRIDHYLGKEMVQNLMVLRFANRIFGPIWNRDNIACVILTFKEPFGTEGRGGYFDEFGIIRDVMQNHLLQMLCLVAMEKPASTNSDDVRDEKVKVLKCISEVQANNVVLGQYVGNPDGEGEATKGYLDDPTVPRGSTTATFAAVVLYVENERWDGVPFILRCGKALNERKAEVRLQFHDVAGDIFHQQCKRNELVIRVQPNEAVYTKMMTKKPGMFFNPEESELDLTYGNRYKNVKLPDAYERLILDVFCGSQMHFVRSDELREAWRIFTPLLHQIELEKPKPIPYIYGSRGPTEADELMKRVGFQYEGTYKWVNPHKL

[8] = inhibitors of Vif binding to APOBEC3G peptide, primary screen, biochemical, TR-FRET, GST-Vif 1-94, biotin-A3G peptide, dose response retest (AID 1117319); type: functional;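 note: TR-FRET signal of purified GST-Vif binding a biotinylated A3G peptide; inhibitors lower the FRET signal by blocking Vif and A3G binding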
BJ [9] = test: cytotoxicity toward BJ-TERT-LT-ST fibroblasts, dose response, cell-based, RAS-independent, luminescence (AID 1935); type: functional; details: Homo sapiens;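 note: BJ fibroblasts immortalized with TERT plus LT and ST oncogenes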
[10] = cytotoxicity toward DRD oncogenic fibroblasts, dose response, cell-based, non-viral oncogenic, luminescence (AID 1934); type: functional; details: Homo sapiens
BJ [11] = test: cells; type: functional, cell-based; details: Homo sapiens
BJ [12] = test: cytotoxicity toward BJ-TERT fibroblasts, dose response, cell-based, RAS-independent, luminescence (AID 1933); type: functional; details: Homo sapiens
cells = type: functional
Cytochrome P450 2D6 = Cytochrome P450 2D6 (Homo sapiens, UniProt P10635);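 note: CYP2D6 member of a cytochrome P450 panel assay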
Sequence of Cytochrome P450 2D6 (P10635 whole entry): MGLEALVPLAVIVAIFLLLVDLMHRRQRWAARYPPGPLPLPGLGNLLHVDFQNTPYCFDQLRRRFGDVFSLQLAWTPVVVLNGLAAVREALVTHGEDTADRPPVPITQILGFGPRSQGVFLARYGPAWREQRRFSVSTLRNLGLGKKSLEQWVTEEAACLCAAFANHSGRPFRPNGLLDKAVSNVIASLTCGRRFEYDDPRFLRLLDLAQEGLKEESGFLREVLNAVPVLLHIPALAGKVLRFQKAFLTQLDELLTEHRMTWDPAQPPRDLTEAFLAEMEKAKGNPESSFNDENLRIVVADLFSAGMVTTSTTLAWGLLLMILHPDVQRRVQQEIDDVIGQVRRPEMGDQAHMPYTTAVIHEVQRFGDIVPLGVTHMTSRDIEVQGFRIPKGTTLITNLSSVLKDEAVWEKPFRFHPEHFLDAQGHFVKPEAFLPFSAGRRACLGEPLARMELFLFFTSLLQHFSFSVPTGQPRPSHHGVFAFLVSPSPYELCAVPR

[13] = growth suppression of beta-catenin-knockout colon cells, dose response, cell-based, HCT116, human colon tumor (AID 1045); type: functional;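 note: HCT116 colon tumor cells with beta catenin knocked out; cells exposed to compound for 60 hours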
[14] = microbe, parasite or virus in culture; type: functional; details: Mycobacterium tuberculosis
[15] = growth suppression of PTEN-null colon cells, dose response, cell-based, HCT116 PTEN knockout (AID 1047); type: functional;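 note: HCT116 colon tumor cells with PTEN knocked out; cells exposed to compound for 60 hours before readout; potency for loss of cell viability measured by luminescence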
Genome polyprotein = Genome polyprotein (dengue virus type 2, UniProt P29990); test: Dengue-2 NS5 methyltransferase inhibitors, primary screen, biochemical, confirmation dose response (AID 588689); type: functional
Sequence of Genome polyprotein (P29990 2492-3391 limits assumed): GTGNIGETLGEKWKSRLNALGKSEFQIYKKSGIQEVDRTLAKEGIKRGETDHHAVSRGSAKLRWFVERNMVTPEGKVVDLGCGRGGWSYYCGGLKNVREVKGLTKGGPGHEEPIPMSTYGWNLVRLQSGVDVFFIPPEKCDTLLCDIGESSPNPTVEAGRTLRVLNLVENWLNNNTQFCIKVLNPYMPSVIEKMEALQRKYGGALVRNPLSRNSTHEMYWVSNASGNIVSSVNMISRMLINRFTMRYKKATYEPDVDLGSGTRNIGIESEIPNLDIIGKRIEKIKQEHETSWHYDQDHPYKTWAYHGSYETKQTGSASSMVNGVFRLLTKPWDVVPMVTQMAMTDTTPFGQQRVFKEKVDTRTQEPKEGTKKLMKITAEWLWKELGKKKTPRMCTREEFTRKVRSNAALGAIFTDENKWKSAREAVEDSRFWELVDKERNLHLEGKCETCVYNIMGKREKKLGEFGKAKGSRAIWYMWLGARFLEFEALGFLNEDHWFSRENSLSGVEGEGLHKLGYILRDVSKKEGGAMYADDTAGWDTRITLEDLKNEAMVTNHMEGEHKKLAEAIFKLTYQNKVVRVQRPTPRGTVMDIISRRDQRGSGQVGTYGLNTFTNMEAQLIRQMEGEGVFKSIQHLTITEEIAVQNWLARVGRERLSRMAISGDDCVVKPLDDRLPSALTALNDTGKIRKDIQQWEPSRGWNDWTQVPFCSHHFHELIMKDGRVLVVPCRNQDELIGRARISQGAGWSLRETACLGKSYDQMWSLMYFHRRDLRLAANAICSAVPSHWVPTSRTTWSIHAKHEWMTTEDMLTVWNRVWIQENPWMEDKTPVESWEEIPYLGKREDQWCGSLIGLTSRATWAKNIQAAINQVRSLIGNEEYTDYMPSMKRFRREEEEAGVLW

[16] = target: T4, DNA repair protein RAD52 homolog (Homo sapiens, UniProt P43351); type: functional, biochemical
T4 sequence (P43351 whole entry): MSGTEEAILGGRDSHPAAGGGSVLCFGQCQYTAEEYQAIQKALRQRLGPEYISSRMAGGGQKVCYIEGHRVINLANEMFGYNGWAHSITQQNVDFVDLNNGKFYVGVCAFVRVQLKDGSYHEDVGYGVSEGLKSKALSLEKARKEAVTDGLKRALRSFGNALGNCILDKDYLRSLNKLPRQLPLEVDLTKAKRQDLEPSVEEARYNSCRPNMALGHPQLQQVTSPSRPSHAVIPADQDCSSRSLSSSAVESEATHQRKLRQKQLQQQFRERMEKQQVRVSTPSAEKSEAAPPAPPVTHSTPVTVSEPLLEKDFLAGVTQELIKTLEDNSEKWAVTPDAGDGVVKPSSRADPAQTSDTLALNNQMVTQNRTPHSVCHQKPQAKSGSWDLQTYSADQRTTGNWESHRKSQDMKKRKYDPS

SMILES: Cc1cccc(NC(=O)CSc2nnc(-c3cc(C)n(-c4ccccc4)c3C)o2)c1C
- EC50 [1]: 2.11 µM (active)

SMILES: CCc1ccc(NC(=O)CCc2nc3sc4c(c3c(=O)[nH]2)CCCC4)cc1
- IC50 (Prothrombin): 35.9 µM (active)
- IC50 [2]: > 100 µM (inactive)
- IC50 [3]: 37.6 µM (active)

SMILES: Cc1ccc(CSc2nnc(CCNC(=O)OC(C)(C)C)o2)cc1
- IC50 [4]: 12.9 µM (active)

SMILES: CC(=O)N1CCN(c2ccc(NCc3cccc4ccccc34)cc2)CC1
- AC50 [5]: 1.36 µM (active)
- IC50 (Large T antigen): 10.1 µM (active)

SMILES: Cn1c(=O)[nH]c(=O)c2c1nc(S)n2CCCc1ccccc1
- IC50 [6]: 19.7 µM (active)
- IC50 [7]: > 80 µM (inactive)

SMILES: CC(=O)Nc1ccc(NC(=O)c2sc3nc4c(c(-c5ccc(C)cc5)c3c2N)CCC4)cc1
- IC50 [8]: > 100 µM (active)

SMILES: CCOc1ccccc1CNS(=O)(=O)c1ccc(-c2cnc(C3CC3)o2)cc1
- EC50 (BJ [9]): 0.703 µM (inconclusive)
- EC50 [10]: 19.7 µM (inconclusive)
- EC50 (BJ [11]): 46.3 µM (active)
- EC50 (BJ [12]): 0.535 µM (inconclusive)

SMILES: Oc1ccc(Br)cc1CN1CCCCCCC1
- AC50 [5]: 7.63 µM (active)

SMILES: COc1ccc(C(C(C(=O)c2cccs2)N2CCOCC2)N2CCOCC2)cc1OC (stereo not given)
- IC50 [8]: > 100 µM (active)

SMILES: c1coc(CNc2nc(-c3cccs3)cs2)c1
- IC50 [8]: > 100 µM (active)

SMILES: N#CCCn1cc(CNCc2ccccc2)c(-c2cccc([N+](=O)[O-])c2)n1
- EC50 [1]: 3.76 µM (active)

SMILES: COc1ccc(O)c(-c2cc(-c3ccccc3[N+](=O)[O-])[nH]n2)c1
- AC50 [5]: 4.33 µM (active)

SMILES: COc1ccc(Cn2cnc3c([N+](=O)[O-])c(C)c(C)cc32)cc1
- IC50 [4]: 12.3 µM (active)

SMILES: CCN(CC)c1ccc([C@H]2[C@@H]3CCCC[C@]3(O)CCN2CC(=O)NCc2ccco2)cc1
- AC50 [5]: 1.54 µM (active)

SMILES: CCN1CCN(c2nc(C)nc3c2sc(=S)n3C)CC1
- IC50 [7]: > 80 µM (inactive)

SMILES: COc1ccc(-c2cn3cc(C)ccc3n2)cc1Br
- IC50 [7]: > 80 µM (inactive)

SMILES: COc1cc(C(F)(F)F)nc2c(Br)c(C(C)(C)C)nn12
- EC50 [1]: 1.5 µM (active)

SMILES: CCC(=O)N1CCN(c2cc3c(cc2F)c(=O)c(C(=O)O)cn3CC)CC1
- IC50 (cells): 6.76 µM (active)

SMILES: COC(=O)CN1C(=O)C(O)=C(C(C)=O)C1c1ccc([N+](=O)[O-])cc1 (stereo not given)
- IC50 [8]: > 100 µM (active)

SMILES: O=C(O)c1ccccc1NC(=O)c1cc(-c2ccccc2)nc2ccccc12
- AC50 [5]: 0.703 µM (active)

SMILES: CCOC(=O)N1CCN(C(=O)CCCn2c(=O)[nH]c3ccccc3c2=O)CC1
- IC50 [4]: 13.2 µM (active)

SMILES: O=C(CCCSc1nc2ccccc2s1)NC1=NCCS1
- IC50 [4]: 12 µM (active)

SMILES: CCOc1cc(CNCCCN2CCOCC2)cc(Br)c1OCC(=O)Nc1cccc(C(F)(F)F)c1
- AC50 (Cytochrome P450 2D6): 14.1 µM (inconclusive)
- EC50 [1]: 6.68 µM (active)
- EC50 [13]: 7.97 µM (active)
- CC50 [14]: 12.4 µM (active)
- EC50 [15]: 9.96 µM (active)

SMILES: CCOC(=O)C1(CC2CC2)CCN(Cc2cc(Cl)c(O)c(OC)c2)CC1
- EC50 [1]: 3.76 µM (active)

SMILES: Cc1cc(O)c(C(C)C)cc1N=Cc1ccc([N+](=O)[O-])cc1
- IC50 (Genome polyprotein): 90.1 µM (active)
- IC50 [7]: 44.4 µM (inactive)

SMILES: O=C1c2ccccc2S(=O)(=O)c2cc(N3CCOCC3)ccc21
- IC50 (Prothrombin): 24 µM (active)
- IC50 [2]: > 100 µM (inactive)
- IC50 [3]: 10.9 µM (active)

SMILES: CCOc1cc(/C=C2\SC(=S)N(NS(=O)(=O)c3ccc(C)cc3)C2=O)ccc1O
- IC50 (Prothrombin): 30.4 µM (active)
- IC50 [2]: 73.8 µM (active)
- IC50 [3]: 36.9 µM (active)

SMILES: O=C(c1ccc(-n2cnnn2)cc1)N1CCOCC1
- IC50 [8]: > 100 µM (active)

SMILES: Cc1c(P(=S)(c2ccccc2)c2ccccc2)[n+]2ccccc2n1C
- IC50 (Prothrombin): 62.8 µM (active)
- AC50 [16]: 10.4 µM (active)
- IC50 [2]: > 100 µM (inactive)
- IC50 [3]: 5.42 µM (active)

SMILES: CC1(C)OC(c2ccccc2)=C/C(=C\C=N\NC(=O)c2ccncc2)O1
- IC50 (cells): 1.06 µM (active)

SMILES: CCOc1ccc(/C=N/OCC(=O)Nc2ccc3c(c2)OCO3)cc1
- IC50 (cells): 18.1 µM (active)

Source: ChEMBL document CHEMBL1201862, “PubChem BioAssay data set” (2004)
